From EP0046734A2, “Aminohydroxyphenyl derivatives of cephalosporins, process for their preparation and pharmaceutical compositions containing them” (CIBA-GEIGY AG, priority 1980, dated 1982)
In brackets after ≈: the same amount, converted by molar mass.

Experiments:
[1] = system: Staphylococcus aureus 10 B; assay: Chemotherapeutic activity in vivo against systemic infection in mice (ED50); set-up: species or system weiblichen SPF, MF2 Mäusen
Source text: (§1) B. Die chemotherapeutsche Wirksamkeit in vivo gegen systemische Infektionen in weiblichen SPF, MF2 Mäusen wurde nach der Methode von Zak, 0., et al., 1979, Drugs Exptl. Clin. Res. 5, 45.59, ermittelt. Die gefundenen ED50 -Werte in Milligramm Substanz pro Kilogramm Maus (mg/kg) gegen eine Anzahl von Mikroorganismen werden für die oral (p.o.) oder subcutan (s.c.) applizierten Testverbindungen in der Tabelle 2 angegeben.

Proteus mirabilis 774 = assay: as above; set-up: species or system weiblichen SPF, MF2 Mäusen; settings: po
Source text: as §1

[2] = system: Klebsiella pneumoniae 327; assay: as above; set-up: species or system weiblichen SPF, MF2 Mäusen; settings: po
Source text: as §1

Escherichia coli 205 = assay: as above; set-up: species or system weiblichen SPF, MF2 Mäusen
Source text: as §1

Escherichia coli DC2 = assay: Antibiotic activity in vitro, agar dilution method in DST agar (MIC); type: cell-based
Source text: (§2) A. Die antibiotische Aktivität der Testverbindungen in vitro wurde durch die Agarverdünnungsmethode nach Ericsson, H.M. und Sherris, S.C., 1971, Acta Path. Microb. Scand. Section B, Suppl. No. 217, Bd. 1-90, in DST Agar ermittelt. Die gefundenen, das Wachstum der Testorganismen noch hemmenden Minimalkonzentrationen (MIC = minimum inhibiting concentrations) werden in Mikrogramm pro Milliliter (µg/ml) für die geprüften Verbindungen in der Tabelle 1 angegeben.

[3] = system: Klebsiella pneumoniae 372; assay: as above; type: cell-based
Source text: as §2

[4] = system: Streptococcus pyogenes Aronson; assay: as above; type: cell-based
Source text: as §2

Neisseria meningitidis = assay: as above; type: cell-based
Source text: as §2

| Structure (SMILES) | ED50 ([1]; po) [mg/kg] | ED50 ([1]; sc) [mg/kg] | ED50 (Proteus mirabilis 774) [mg/kg] | ED50 [2] [mg/kg] | ED50 (Escherichia coli 205; po) [mg/kg] | ED50 (Escherichia coli 205; sc) [mg/kg] | MIC (Escherichia coli DC2) [µg/mL] | MIC [3] [µg/mL] | MIC [4] [µg/mL] | MIC (Neisseria meningitidis) [µg/mL] |
| --- | --- | --- | --- | --- | --- | --- | --- | --- | --- | --- |
| COC1=C(C(=O)O)N2C(=O)[C@@H](NC(=O)[C@H](N)c3ccc(O)c(NS(C)(=O)=O)c3)[C@H]2SC1 [Verbindung 1, 7ß-[D-2-Amino-2-(3-methylsulfonylamino-4-hydroxyphenyl)-acetylamino]-3-methoxy-ceph-3-em-4-carbonsäure] | 1.5 | 3 | 22 | 7 | 5 | 6 | 0.5 (≈ 1.06 µM) | 2 (≈ 4.23 µM) | 0.1 (≈ 0.212 µM) | 1 (≈ 2.12 µM) |
| CS(=O)(=O)Nc1cc([C@@H](N)C(=O)N[C@@H]2C(=O)N3C(C(=O)O)=CCS[C@H]23)ccc1O [Verbindung 2, 7ß-[D-2-Amino-2-(3-methylsulfQnylamino-4-hydroxyphenyl)-acetylamino]-ceph-3-em-4-carbonsäure] | 1.5 | 3 | 22 | 3 | 2.2 |  | 4 (≈ 9.04 µM) | 4 (≈ 9.04 µM) | 4 (≈ 9.04 µM) | 8 (≈ 18.1 µM) |
| CS(=O)(=O)Nc1cc([C@@H](N)C(=O)N[C@@H]2C(=O)N3C(C(=O)O)=C(Cl)CS[C@H]23)ccc1O [Verbindung 3, 7ß-[D-2-Amino-2-(3-methylsulfonylamino-4-hydroxyphenyl)-acetylamino]-3-chlor-ceph-3-em-4-carbonsäure] | 4 | 10 | 4 | 3 | 2 | 3 | 0.5 (≈ 1.05 µM) | 1 (≈ 2.1 µM) | 0.5 (≈ 1.05 µM) | 0.5 (≈ 1.05 µM) |
| CCS(=O)(=O)Nc1cc([C@@H](N)C(=O)N[C@@H]2C(=O)N3C(C(=O)O)=CCS[C@H]23)ccc1O [Verbindung 4, 7ß-[D-2-Amino-2-(3-äthylsulfonylamino-4-hydroxyphenyl)-acetylamino]-ceph-3-em-4-carbonsäure] | 1.5 | 3 | 30 | 1.4 | 4.5 | 3 | 4 (≈ 8.76 µM) | 4 (≈ 8.76 µM) | 1 (≈ 2.19 µM) | 4 (≈ 8.76 µM) |
| CCS(=O)(=O)Nc1cc([C@@H](N)C(=O)N[C@@H]2C(=O)N3C(C(=O)O)=C(Cl)CS[C@H]23)ccc1O [Verbindung 5, 7ß-[D-2-Amino-2-(3-äthylsulfonylamino-4-hydroxyphenyl)-acetylamino]-3-chlor-ceph-3-em-4-carbonsäure] | 7 | 10 | 30 | 1.4 | 4.5 | 3 | 2 (≈ 4.07 µM) | 1 (≈ 2.04 µM) | 0.5 (≈ 1.02 µM) | 0.1 (≈ 0.204 µM) |
| CCS(=O)(=O)Nc1cc([C@@H](N)C(=O)N[C@@H]2C(=O)N3C(C(=O)O)=C(OC)CS[C@H]23)ccc1O [Verbindung 6, 7ß-[D-2-Amino-2-(3-äthylsulfonylamino-4-hydroxyphenyl)-acetylamino]-3-methoxy-ceph-3-em-4-carbonsäure] | 6 | 15 | 30 | 10 | 6 | 8 | 2 (≈ 4.11 µM) | 16 (≈ 32.9 µM) | 0.5 (≈ 1.03 µM) | 0.1 (≈ 0.206 µM) |
